We go through 29 molecules from US5703239A, “Indanylpiperidines as melatonergic agents” (Bristol-Myers Squibb Company, priority 1996, dated 1997).

Assay [1] deals with T1, human ML1B receptor (Homo sapiens, UniProt P49286).
T1 construct: expressed in transfected cells; host or cells: NIH 3T3 cells (stably transfected; obtained from S. M. Reppert)
T1 sequence (P49286 1-362): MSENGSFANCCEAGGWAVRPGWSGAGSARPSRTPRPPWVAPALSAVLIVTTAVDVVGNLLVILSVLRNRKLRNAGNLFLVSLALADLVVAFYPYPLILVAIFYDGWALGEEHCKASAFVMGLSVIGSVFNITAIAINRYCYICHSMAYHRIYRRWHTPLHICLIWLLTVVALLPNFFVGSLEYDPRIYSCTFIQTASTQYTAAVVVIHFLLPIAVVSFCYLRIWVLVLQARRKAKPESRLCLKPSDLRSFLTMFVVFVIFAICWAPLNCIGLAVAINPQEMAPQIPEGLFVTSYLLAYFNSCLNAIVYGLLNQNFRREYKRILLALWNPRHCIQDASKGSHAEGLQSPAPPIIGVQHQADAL
The assay is described as follows: Binding to human melatonergic receptors (2-[125I]-iodomelatonin, NIH 3T3 cell membranes, human ML1B receptor). As to conditions: IC50 class; 200 pM 2-[125I]-iodomelatonin, 37° C., 1 hour, membranes of NIH 3T3 cells transfected with human ML1B receptor; read-out: Melatonin Binding. The procedure: Measurement of Binding to Human Melatonergic Receptors The melatonergic binding affinities of various compounds of Formula I were determined by the method of Reppert, S. M., Weaver, D. R., and Ebisawa, R. (Neuron, Volume 13, 1177-1185, 1994). The assays were incubated at 37° C. for 1 hour, and the reaction was terminated by filtration. The filters were washed with wash buffer. […] The reagents, membrane and other techniques used in the melatonergic binding assays are more fully described below: […] Reagents: (a) 50 mM Tris buffer containing 12.5 mM MgCl2, and 2 mM EDTA, pH 7.4 at 37° C. (b) Wash buffer: 20 mM Tris base containing 2 mM MgCl2. pH 7.4 at room temperature. (c) Melatonin (10^-5 M final concentration). (d) 2-[^125 I]-Iodomelatonin, 200 pM final concentration Source: NEN 2. Membrane preparation: NIH 3T3 cells stably transfected with the human ML1B receptor were obtained from S. M. Reppert and maintained. Cells were pelleted when confluent. The supernatant was discarded and the pellets frozen. For preparing membrane homogenates, the pellets are thawed on ice and resuspended in TME buffer, Tris base, MgCl2, EDTA (pH 7.4 at 37° C.), supplemented with aprotinin, leupeptin, and […]. The cells were then homogenized and centrifuged. The resulting pellet was resuspended with a Dounce homogenizer in TME and frozen. At assay, a small aliquot was thawed on ice and resuspended in TME buffer.

The conditions of assay [2]: literature: Dubocovich et al, European Journal of Pharmacology, 182, (1990), pages 313-325; cited from earlier work.
Assay [3] deals with human melatonin receptors. As to conditions: result in words, luzindole, background section; cited from earlier work.

Some results are limits rather than exact numbers.

Consider `COCC(=O)N1CCC(C2CCc3ccc(OC)cc32)CC1` (stereo not shown) [4-(6-Methoxy-indan-1-yl)-1-(2-methoxy-acetyl)piperidine], for which, in assay [1], the IC50 was less than 10 nM.

In the case of `CCC(C)C(=O)N1CCC(C2CCc3ccc(OC)cc32)CC1` (stereo not shown) [4-(6-Methoxy-indan-1-yl)-1-(2-methylbutanoyl)piperidine], the IC50 in assay [1] was less than 10 nM.

With `COc1ccc2c(c1)C(C1CCN(C(=O)CSC)CC1)CC2` (stereo not shown) [4-(6-Methoxy-indan-1-yl)-1-(2-methylthioacetyl)piperidine], the IC50 in assay [1] was less than 10 nM.

`COc1ccc2c(c1)C(C1CCN(C(=O)c3csnn3)CC1)CC2` (stereo not shown) [4-(6-Methoxy-indan-1-yl)-1-[(1,2,3-thiadiazol-4-yl)carbonyl]piperidine]: in assay [1], the IC50 was less than 10 nM.

For the molecule `COc1ccc2c(c1)C(C1CCN(C(=O)c3cccn3C)CC1)CC2` (stereo not shown) [4-(6-Methoxy-indan-1-yl)-1-[(1-methyl-pyrrol-2-yl)carbonyl]piperidine], the IC50 in assay [1] was less than 10 nM.

In the case of `COc1ccc2c(c1)C(C1CCN(C(=O)c3ccc[nH]3)CC1)CC2` (stereo not shown) [4-(6-Methoxy-indan-1-yl)-1-[(1H-pyrrol-2-yl)carbonyl]piperidine], the IC50 in assay [1] is less than 10 nM.

For `COc1ccc2c(c1)C(C1CCN(C(=O)c3cccs3)CC1)CC2` (stereo not shown) [4-(6-Methoxy-indan-1-yl)-1-[(2-thienyl)carbonyl]piperidine], in assay [1], the IC50 is less than 10 nM.

In the case of `COc1ccc2c(c1)C(C1CCN(C(=O)c3occc3C)CC1)CC2` (stereo not shown) [4-(6-Methoxy-indan-1-yl)-1-[(3-methyl-furan-2-yl)carbonyl]piperidine], in assay [1], the IC50 was less than 10 nM.

For `COc1ccc2c(c1)C(C1CCN(C(=O)c3sccc3C)CC1)CC2` (stereo not shown) [4-(6-Methoxy-indan-1-yl)-1-[(3-methyl-thien-2-yl)carbonyl]piperidine], the IC50 in assay [1] is less than 10 nM.

For `COc1ccc2c(c1)C(C1CCN(C(=O)c3ccsc3)CC1)CC2` (stereo not shown) [4-(6-Methoxy-indan-1-yl)-1-[(3-thienyl)carbonyl]piperidine], in assay [1], the IC50 is less than 10 nM.

As for `COc1ccc2c(c1)C(C1CCN(C(=O)C(C)C)CC1)CC2` (stereo not shown) [4-(6-methoxy-indan-1-yl)-1-(2-methylpropanoyl)piperidine], the IC50 in assay [1] was less than 10 nM.

Turning to `COc1ccc2c(c1)C(C1CCN(C(=O)C(F)(F)F)CC1)CC2` (stereo not shown) [4-(6-methoxy-indan-1-yl)-1-(trifluoroacetyl)piperidine], the IC50 in assay [1] was less than 10 nM.

For the molecule `COc1ccc2c(c1)C(C1CCN(C(=O)c3ccc(C)s3)CC1)CC2` (stereo not shown) [4-(6-methoxy-indan-1-yl)-1-[(5-methyl-thien-2-yl)carbonyl]piperidine], the IC50 in assay [1] is 10 to 100 nM.

Turning to `CC(=O)NCCc1c(Cc2ccccc2)[nH]c2ccccc12` [Luzindole], the antidepressant-like effects result in assay [2] was “exhibits antidepressant-like effects”. The “binds to human melatonin receptors” value in assay [3] is on record as “binds to human melatonin receptors”. Also, the IC50 in assay [1] is 100 to 250 nM.

As to `O=C(C1CC1)N1CCC(C2CCc3ccc(O)cc32)CC1` (stereo not shown) [N-(Cyclopropylcarbonyl)-4-(6-hydroxy-indan-1-yl)piperidine], the IC50 in assay [1] lay within 10 to 100 nM.

For `CCNC(=O)N1CCC(C2CCc3cc(F)c(OC)cc32)CC1` (stereo not shown) [N-Ethyl-4-(5-fluoro-6-methoxy-indan-1-yl)piperidine-1-carboxamide], in assay [1], the IC50 fell in the range of 10 to 100 nM.

Turning to `CCNC(=O)N1CCC(C2CCc3ccc(CC)cc32)CC1` (stereo not shown) [N-Ethyl-4-(6-ethyl-indan-1-yl)piperidine-1-carboxamide], the IC50 in assay [1] was less than 10 nM.

As for `CCNC(=O)N1CCC(C2CCc3ccc(F)cc32)CC1` (stereo not shown) [N-Ethyl-4-(6-fluoro-indan-1-yl)piperidine-1-carboxamide], the IC50 in assay [1] is less than 10 nM.

Take `CCNC(=O)N1CCC(C2CCc3ccc(OC)cc32)CC1` (stereo not shown) [N-Ethyl-4-(6-methoxy-indan-1-yl)piperidine-1-carboxamide]: in assay [1], the IC50 was less than 10 nM.

As for `CCNC(=O)N1CCC(C2CCCc3ccc(OC)cc32)CC1` (stereo not shown) [N-Ethyl-4-(7-methoxy-tetralin-1-yl)piperidine-1-carboxamide], the IC50 in assay [1] lay in the range of 10 to 100 nM.

For the molecule `CCNC(=O)N1CCC(C2CCc3ccccc32)CC1` (stereo not shown) [N-Ethyl-4-(indan-1-yl)-piperidine-1-carboxamide], the IC50 in assay [1] lay within 10 to 100 nM.

Regarding `CCCCCCCOc1ccc2c(c1)C(C1CCN(C(=O)NCC)CC1)CC2` (stereo not shown) [N-Ethyl-4-[6-(n-heptyloxy)-indan-1-yl]piperidine-1-carboxamide], the IC50 in assay [1] is less than 10 nM.

In the case of `CCNC(=O)N1CCC(C2CCc3ccc(OC(F)(F)F)cc32)CC1` (stereo not shown) [N-Ethyl-4-[6-(trifluoromethoxy)-indan-1-yl]piperidine-1-carboxamide], in assay [1], the IC50 fell in the range of 10 to 100 nM.

On to `CCNC(=O)N1CCC(C2CCc3ccc(OCCCc4cccc(OC)c4)cc32)CC1` (stereo not shown) [N-Ethyl-4-[6-[3-(3-methoxyphenyl)propyloxy]-indan-1-yl]piperidine-1-carboxamide], for which the IC50 in assay [1] lay in the range of 10 to 100 nM.

With `CNC(=O)N1CCC(C2CCc3cc(F)c(OC)cc32)CC1` (stereo not shown) [N-Methyl-4-(5-fluoro-6-methoxy-indan-1-yl)piperidine-1-carboxamide], in assay [1], the IC50 is less than 10 nM.

In the case of `CNC(=O)N1CCC(C2CCc3ccc(F)cc32)CC1` (stereo not shown) [N-Methyl-4-(6-fluoro-indan-1-yl)piperidine-1-carboxamide], the IC50 in assay [1] fell in the range of 10 to 100 nM.

As for `CNC(=S)N1CCC(C2CCc3ccc(OC)cc32)CC1` (stereo not shown) [N-Methyl-4-(6-methoxy-indan-1-yl)-piperidine-1-thiocarboxamide], the IC50 in assay [1] was less than 10 nM.

For `CNC(=O)N1CCC(C2CCc3ccc(OC)cc32)CC1` (stereo not shown) [N-Methyl-4-(6-methoxy-indan-1-yl)piperidine-1-carboxamide], the IC50 in assay [1] is less than 10 nM.

Consider `CNC(=O)N1CCC(C2CCc3ccccc32)CC1` (stereo not shown) [N-Methyl-4-(indan-1-yl)-piperidine-1-carboxamide], for which the IC50 in assay [1] was less than 10 nM.
